2 compounds from ChEMBL document CHEMBL5653615 (J Biol Chem, 2013) can be followed below.

Assay [1] deals with Cyclin-dependent kinase 7/ cyclin H (Homo sapiens) (UniProt P51946+P50613). Description: Inhibition of human CDK7/cyclin H at 500 nM by HotSpot assay relative to control. The format is protein-complex assay.
Assay [2] deals with Casein kinase I isoform delta (Homo sapiens) (UniProt P48730). Description: Inhibition of human CK1d at 500 nM by HotSpot assay relative to control.
Assay [3] addresses T1, Dual specificity tyrosine-phosphorylation-regulated kinase 2 (Homo sapiens) (UniProt Q92630).
T1 sequence (whole entry): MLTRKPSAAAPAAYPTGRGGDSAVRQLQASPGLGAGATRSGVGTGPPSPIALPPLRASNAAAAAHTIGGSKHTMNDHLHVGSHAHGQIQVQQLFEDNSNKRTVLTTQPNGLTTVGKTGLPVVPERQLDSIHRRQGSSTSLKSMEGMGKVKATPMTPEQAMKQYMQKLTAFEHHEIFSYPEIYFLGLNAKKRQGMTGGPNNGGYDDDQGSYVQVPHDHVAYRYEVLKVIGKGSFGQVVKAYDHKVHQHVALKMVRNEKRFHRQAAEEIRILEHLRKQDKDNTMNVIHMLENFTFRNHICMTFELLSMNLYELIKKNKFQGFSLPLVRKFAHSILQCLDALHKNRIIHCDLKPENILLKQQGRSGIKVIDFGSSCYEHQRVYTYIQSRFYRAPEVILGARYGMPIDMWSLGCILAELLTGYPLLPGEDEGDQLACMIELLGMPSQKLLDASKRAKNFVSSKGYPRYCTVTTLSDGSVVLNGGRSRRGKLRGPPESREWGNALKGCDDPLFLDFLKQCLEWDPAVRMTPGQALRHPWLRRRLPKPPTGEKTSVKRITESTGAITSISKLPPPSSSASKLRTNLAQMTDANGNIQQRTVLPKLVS
Description: Inhibition of human DYRK2 at 500 nM by HotSpot assay relative to control.

The target of assay [4] is G protein-coupled receptor kinase 6 (Homo sapiens) (UniProt P43250). The assay is described as follows: Inhibition of human GRK6 at 500 nM by HotSpot assay relative to control.
Assay [5] deals with Glycogen synthase kinase-3 alpha (Homo sapiens) (UniProt P49840). The assay is described as follows: Inhibition of human GSK3a at 500 nM by HotSpot assay relative to control.
Glycogen synthase kinase-3 alpha (Homo sapiens), sequence (P49840 2-483 limits assumed): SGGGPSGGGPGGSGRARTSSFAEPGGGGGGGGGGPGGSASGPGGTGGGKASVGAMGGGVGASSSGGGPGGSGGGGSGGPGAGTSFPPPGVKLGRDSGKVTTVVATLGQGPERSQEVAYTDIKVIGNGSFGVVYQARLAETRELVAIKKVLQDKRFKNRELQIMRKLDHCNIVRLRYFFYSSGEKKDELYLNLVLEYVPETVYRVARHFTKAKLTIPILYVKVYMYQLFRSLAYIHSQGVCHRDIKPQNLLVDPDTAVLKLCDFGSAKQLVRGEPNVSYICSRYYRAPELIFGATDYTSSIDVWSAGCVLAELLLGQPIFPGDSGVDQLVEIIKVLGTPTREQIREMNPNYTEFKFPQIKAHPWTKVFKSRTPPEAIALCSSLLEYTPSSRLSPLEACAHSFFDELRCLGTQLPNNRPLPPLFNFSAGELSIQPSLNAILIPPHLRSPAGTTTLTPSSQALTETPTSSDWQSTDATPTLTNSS
Assay [6] deals with Mitogen-activated protein kinase kinase kinase kinase 4 (Homo sapiens) (UniProt O95819). The assay is described as follows: Inhibition of human HGK at 500 nM by HotSpot assay relative to control.
Mitogen-activated protein kinase kinase kinase kinase 4 (Homo sapiens), sequence (O95819 2-1239 limits assumed): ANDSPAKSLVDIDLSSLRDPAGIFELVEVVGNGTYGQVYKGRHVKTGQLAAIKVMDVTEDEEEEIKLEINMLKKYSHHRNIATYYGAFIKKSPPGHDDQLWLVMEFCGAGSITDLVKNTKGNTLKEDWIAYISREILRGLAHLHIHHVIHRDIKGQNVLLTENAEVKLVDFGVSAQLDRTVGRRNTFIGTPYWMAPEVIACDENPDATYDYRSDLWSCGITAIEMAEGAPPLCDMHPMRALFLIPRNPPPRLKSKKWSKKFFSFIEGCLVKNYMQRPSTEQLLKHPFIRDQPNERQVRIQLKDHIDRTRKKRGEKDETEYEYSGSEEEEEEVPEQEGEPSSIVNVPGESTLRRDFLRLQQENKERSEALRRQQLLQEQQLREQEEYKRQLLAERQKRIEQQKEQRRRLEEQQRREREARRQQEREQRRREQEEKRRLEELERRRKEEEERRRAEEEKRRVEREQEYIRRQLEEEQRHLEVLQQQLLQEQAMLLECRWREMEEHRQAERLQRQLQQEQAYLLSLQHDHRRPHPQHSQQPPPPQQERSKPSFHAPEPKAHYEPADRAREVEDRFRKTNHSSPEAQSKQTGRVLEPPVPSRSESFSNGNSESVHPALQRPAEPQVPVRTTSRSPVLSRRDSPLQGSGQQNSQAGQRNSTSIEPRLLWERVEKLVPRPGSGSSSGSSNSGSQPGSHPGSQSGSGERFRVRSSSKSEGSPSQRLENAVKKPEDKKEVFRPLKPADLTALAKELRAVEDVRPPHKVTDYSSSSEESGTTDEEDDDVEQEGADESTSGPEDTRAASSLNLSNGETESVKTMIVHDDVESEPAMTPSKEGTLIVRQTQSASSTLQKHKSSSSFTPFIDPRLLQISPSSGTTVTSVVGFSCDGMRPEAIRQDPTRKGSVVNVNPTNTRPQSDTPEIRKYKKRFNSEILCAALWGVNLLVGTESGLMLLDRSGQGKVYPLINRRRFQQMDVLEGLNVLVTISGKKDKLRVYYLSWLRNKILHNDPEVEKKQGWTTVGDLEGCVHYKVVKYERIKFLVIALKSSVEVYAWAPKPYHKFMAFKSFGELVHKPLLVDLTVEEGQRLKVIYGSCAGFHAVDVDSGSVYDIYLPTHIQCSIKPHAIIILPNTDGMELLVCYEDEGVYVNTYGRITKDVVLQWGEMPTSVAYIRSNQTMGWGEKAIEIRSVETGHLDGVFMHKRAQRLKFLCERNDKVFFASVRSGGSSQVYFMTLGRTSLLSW
Assay [7] concerns the target T2, Inhibitor of nuclear factor kappa-B kinase subunit epsilon (Homo sapiens) (UniProt Q14164).
T2 sequence (whole entry): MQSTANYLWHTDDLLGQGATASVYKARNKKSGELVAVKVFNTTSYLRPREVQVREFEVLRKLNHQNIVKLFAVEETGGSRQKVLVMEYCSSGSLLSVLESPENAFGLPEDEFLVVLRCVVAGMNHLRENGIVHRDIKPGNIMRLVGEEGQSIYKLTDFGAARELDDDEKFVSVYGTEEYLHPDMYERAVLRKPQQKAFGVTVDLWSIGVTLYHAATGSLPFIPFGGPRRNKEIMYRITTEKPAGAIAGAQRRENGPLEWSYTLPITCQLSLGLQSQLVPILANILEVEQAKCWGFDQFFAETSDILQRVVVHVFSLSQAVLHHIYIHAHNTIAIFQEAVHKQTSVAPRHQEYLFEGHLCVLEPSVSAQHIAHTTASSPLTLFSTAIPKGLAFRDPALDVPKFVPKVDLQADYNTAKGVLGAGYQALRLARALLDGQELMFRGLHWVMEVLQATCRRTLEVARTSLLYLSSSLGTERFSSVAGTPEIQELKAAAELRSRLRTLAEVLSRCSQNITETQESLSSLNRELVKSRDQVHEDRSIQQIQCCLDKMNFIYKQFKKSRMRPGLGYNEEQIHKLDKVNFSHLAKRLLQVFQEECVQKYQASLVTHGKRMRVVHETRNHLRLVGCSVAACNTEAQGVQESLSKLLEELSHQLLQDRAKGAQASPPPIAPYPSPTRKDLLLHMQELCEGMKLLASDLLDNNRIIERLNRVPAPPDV
Description: Inhibition of human IKKe at 500 nM by HotSpot assay relative to control.

For assay [8], the target named is Insulin receptor (Homo sapiens) (UniProt P06213). Description: Inhibition of human IR at 500 nM by HotSpot assay relative to control.
The target in assay [9] is Serine/threonine-protein kinase 24 (Homo sapiens) (UniProt Q9Y6E0). Description: Inhibition of human STK24 at 500 nM by HotSpot assay relative to control.
Serine/threonine-protein kinase 24 (Homo sapiens), sequence (Q9Y6E0 whole entry, looked up): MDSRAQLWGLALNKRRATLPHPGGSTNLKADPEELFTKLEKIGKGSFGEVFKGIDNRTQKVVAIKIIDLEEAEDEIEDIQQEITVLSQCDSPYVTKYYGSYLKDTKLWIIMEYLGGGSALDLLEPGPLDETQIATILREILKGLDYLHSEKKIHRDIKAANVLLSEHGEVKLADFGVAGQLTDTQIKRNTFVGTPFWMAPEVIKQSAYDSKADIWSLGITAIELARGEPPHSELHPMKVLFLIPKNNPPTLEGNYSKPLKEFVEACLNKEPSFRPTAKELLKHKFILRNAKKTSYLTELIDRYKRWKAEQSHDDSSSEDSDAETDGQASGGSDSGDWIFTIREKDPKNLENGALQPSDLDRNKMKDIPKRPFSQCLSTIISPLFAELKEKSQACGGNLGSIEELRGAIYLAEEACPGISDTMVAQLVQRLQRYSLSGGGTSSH
In assay [10] the target is Serine/threonine-protein kinase PAK 3 (Homo sapiens) (UniProt O75914). The assay is described as follows: Inhibition of human PAK3 at 500 nM by HotSpot assay relative to control.
Serine/threonine-protein kinase PAK 3 (Homo sapiens), sequence (O75914 whole entry, looked up): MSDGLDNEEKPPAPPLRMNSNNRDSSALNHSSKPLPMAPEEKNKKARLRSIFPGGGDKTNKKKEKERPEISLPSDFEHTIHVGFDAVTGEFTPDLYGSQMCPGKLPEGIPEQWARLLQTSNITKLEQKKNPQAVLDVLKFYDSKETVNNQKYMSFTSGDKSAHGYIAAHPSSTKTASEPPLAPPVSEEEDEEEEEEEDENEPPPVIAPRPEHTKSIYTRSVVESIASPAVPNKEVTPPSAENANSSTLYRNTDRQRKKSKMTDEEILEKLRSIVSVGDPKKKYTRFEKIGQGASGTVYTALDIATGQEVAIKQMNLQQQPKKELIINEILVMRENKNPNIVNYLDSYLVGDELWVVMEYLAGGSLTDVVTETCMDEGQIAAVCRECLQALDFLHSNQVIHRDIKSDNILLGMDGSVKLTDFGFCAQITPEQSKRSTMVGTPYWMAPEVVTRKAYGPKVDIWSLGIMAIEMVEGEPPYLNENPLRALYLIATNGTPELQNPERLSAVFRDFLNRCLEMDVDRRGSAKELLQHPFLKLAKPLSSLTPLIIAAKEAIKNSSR
Assay [11] concerns the target Rho-associated protein kinase 2 (Homo sapiens) (UniProt O75116). Description: Inhibition of human ROCK2 at 500 nM by HotSpot assay relative to control.
Assay [12] concerns the target Tyrosine-protein kinase Srms (Homo sapiens) (UniProt Q9H3Y6). The assay is described as follows: Inhibition of human SRMS at 500 nM by HotSpot assay relative to control.
Assay [13] deals with T3, Serine/threonine-protein kinase TAO3 (Homo sapiens) (UniProt Q9H2K8).
T3 sequence (whole entry): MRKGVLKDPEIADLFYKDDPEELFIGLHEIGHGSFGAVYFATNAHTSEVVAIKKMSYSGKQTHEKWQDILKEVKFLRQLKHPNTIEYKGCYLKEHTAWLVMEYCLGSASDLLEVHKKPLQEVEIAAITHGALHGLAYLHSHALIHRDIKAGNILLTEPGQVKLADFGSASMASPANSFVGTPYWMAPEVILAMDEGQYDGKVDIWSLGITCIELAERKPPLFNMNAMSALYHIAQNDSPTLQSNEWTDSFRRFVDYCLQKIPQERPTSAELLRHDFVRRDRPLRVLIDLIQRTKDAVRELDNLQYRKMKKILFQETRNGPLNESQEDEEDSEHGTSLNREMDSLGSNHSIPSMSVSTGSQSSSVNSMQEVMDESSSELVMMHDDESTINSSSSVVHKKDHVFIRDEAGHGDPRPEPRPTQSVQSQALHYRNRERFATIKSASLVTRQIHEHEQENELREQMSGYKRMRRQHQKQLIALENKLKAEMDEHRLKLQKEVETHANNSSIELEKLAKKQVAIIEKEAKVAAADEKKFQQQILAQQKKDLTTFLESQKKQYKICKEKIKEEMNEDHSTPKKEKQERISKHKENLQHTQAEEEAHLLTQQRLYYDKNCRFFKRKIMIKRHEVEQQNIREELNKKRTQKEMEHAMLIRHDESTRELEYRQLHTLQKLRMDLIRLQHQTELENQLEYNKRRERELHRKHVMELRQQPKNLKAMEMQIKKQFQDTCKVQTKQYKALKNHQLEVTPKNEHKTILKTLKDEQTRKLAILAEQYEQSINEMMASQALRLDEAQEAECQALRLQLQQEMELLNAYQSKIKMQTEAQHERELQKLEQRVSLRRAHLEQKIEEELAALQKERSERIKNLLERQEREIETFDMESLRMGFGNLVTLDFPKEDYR
Description: Inhibition of human JIK at 500 nM by HotSpot assay relative to control.

Tyrosine-protein kinase Srms (Homo sapiens), sequence (Q9H3Y6 whole entry): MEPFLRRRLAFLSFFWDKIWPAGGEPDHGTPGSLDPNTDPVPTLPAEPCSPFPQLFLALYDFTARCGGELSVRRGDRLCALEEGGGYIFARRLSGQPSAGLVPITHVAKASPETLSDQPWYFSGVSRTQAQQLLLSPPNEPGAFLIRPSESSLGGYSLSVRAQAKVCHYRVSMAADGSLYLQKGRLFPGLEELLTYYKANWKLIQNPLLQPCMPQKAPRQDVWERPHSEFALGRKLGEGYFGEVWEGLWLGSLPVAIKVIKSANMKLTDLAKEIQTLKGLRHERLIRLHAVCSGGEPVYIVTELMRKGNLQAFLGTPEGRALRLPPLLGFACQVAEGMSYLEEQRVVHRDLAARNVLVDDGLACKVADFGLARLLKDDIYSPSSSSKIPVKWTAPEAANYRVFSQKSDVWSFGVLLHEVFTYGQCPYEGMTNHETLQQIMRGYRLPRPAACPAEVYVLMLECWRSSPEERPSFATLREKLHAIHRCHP
Casein kinase I isoform delta (Homo sapiens), sequence (P48730 whole entry, looked up, canonical isoform): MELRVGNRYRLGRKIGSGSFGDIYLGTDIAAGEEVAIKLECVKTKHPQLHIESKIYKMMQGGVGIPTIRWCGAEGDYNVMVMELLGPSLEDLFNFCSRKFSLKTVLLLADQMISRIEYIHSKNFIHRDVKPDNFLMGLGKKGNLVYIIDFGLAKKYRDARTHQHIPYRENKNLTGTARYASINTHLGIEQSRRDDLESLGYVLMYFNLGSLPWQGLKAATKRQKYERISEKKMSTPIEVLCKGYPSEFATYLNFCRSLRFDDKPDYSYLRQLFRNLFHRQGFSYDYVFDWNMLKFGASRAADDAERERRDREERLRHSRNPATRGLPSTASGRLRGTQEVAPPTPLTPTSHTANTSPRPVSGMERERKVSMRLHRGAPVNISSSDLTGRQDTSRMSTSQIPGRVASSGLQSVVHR
Rho-associated protein kinase 2 (Homo sapiens), sequence (O75116 whole entry, looked up): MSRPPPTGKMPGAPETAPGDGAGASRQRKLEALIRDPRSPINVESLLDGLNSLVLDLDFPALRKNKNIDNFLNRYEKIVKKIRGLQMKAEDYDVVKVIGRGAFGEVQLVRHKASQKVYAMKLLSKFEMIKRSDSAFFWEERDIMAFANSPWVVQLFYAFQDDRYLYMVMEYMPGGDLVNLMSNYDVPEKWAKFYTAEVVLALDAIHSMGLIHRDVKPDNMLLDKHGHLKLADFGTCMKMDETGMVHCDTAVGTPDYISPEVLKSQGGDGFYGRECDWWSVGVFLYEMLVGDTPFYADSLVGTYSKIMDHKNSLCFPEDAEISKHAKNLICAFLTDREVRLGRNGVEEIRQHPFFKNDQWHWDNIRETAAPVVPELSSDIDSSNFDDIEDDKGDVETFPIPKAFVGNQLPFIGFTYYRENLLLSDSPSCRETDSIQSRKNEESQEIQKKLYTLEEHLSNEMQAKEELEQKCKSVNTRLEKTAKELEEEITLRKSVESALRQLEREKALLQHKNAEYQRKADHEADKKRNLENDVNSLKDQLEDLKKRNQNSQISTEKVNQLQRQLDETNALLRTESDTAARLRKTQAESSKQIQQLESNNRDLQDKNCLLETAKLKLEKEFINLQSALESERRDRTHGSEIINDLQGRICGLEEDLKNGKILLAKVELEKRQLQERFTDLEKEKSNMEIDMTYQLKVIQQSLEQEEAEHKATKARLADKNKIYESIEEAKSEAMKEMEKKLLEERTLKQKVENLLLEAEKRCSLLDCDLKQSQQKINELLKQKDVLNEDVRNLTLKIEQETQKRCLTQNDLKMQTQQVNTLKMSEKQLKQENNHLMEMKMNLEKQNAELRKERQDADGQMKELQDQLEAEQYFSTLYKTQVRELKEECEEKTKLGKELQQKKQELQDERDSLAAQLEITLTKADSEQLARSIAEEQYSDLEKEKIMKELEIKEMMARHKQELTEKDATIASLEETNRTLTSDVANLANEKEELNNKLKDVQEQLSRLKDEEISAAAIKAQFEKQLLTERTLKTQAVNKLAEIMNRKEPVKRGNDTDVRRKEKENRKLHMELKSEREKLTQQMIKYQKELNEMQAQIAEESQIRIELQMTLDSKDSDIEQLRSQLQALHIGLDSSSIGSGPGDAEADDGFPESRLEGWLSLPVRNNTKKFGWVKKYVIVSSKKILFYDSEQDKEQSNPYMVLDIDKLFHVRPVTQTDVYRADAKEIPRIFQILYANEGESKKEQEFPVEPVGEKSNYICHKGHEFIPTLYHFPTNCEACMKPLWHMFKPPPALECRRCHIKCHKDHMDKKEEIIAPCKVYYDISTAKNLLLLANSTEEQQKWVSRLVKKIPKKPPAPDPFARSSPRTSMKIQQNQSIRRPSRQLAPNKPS

Take `Oc1n[nH]c2nnc(-c3c(-c4ccccc4)nn4ccccc34)cc12`: the inhibition is 3.04% in assay [1]; 4.93% in [2]; -3.03% in assay [3]; 1.01% in assay [4]; -1.18% in assay [5]; 0.95% in assay [6]. The inhibition is 0.81% in assay [7]; 72.6% in [8]; -2.3% in assay [9]; 0.99% in [10]; 0.7% in [11]; 0.83% in assay [12]. In assay [13], the inhibition is 4.08%.
Take `Nc1n[nH]c2nnc(-c3c(-c4ccccc4)nn4ccccc34)cc12`: the inhibition was 0.97% in [1]; 36.8% in [2]; -3.42% in assay [3]; 0.69% in assay [4]; 18.9% in assay [5]; 38% in assay [6]. Besides, the inhibition in [7] was 4.54%; in assay [8], 21.7%; in assay [9] it was 25.4%; in assay [10], -0.04%; in assay [11], 10.4%; in assay [12], 7.04%. Moreover, the inhibition in [13] was -1.15%.

The inhibition is the drop in the measured response relative to a control, in per cent.
